Counter-ions that a name gives are not always drawn.
Key:
[1] = test system: first lung cancer tumor organoid line; experiment: high throughput tumor organoid drug screen, per-organoid viability histogram; conditions: 10,000 nM dose; for viability at 10 µM: Homo sapiens, read-out: mean viability for all organoids in the plot, caspase 3/7 readout
Description: (§1) TOs were dissociated as described above and resuspended in a 30:70% mix of GFR Matrigel:growth media at a concentration of 100 cells/μl. The solution was added to 384-well assay plates (Corning) at 20 μl per well for a final concentration of 2,000 cells per well. Assay plates were covered with a Breathe-Easy sealing membrane (Sigma Aldrich) to prevent evaporation. TOs were grown for 72 hours before drug addition. Drugs were prepared in growth media with 2.5 μM Caspase-3/7 Green Apoptosis Assay Reagent (Essen Bioscience). Serial dilutions of each molecule were prepared in 384-well polystyrene plates (Nunc). Diluted drug was added to the assay plate using an Integra Viaflo pipette (Integra) mounted on an Integra Assist Plus Pipetting Robot (Integra). Assay plates were again covered with a Breathe-Easy sealing membrane and TOs were exposed to drugs for another 72 hours before imaging.
(§2) Prior to imaging, TOs were incubated with 4 μM Hoechst 33342 (Fisher Scientific) and 300 nM TO-PRO-3 Iodide (642/661) (Invitrogen) for 1.5-2 hours. Assay plates were imaged using an ImageXpress Micro Confocal (Molecular Devices) at 10× magnification so that ˜100-200 TOs were imaged per well. Images were acquired as 4×15 μm Z-stacks and the 2D projections were analyzed to assess cell viability. Confocal images were analyzed using the MetaXpress software (Molecular Devices) custom module editor feature to design an analysis module that identified TOs by clusters of Hoechst 33342 staining, individual cells by Hoechst 33342 staining, and dead/dying cells by either TO-PRO-3 or Caspase-3/7 staining. The result of this analysis module is a spreadsheet detailing the number of live and dead cells for every individual organoid.
(§3) The percentage of viable cells per organoid was calculated based on the image analysis described above. Organoids with fewer than three cells and larger than the top one percent by size were excluded from analysis. The mean viability for all organoids at a given drug concentration was used in dose-response curves to calculate AUC. AUC was calculated using the computeAUC function using settings for “actual” AUC of the R Package PharmacoGx (v1.17.1). Heatmaps of AUC values were generated using the Pheatmap package (v1.0.12) in R. Scatterplots of AUC values were generated using the ggplot2 package (v3.3.0) in R.
(§4) In this example, data for each therapy is presented as a histogram. […] Viability was determined by the systems and methods disclosed above.
(§5) Each tumor organoid line in these examples was cultured individually in wells of a tissue culture plate, as described above.
In this example, tissue culture wells containing a first lung cancer tumor organoid line were each exposed to one of the therapies listed above.

[2] = test system: second lung cancer tumor organoid line; experiment: as above; conditions: for viability at 10 µM: Homo sapiens, read-out: mean viability for all organoids in the plot
Description: as §1, §2, §3, §4, §5
In this example, tissue culture wells containing a second lung cancer tumor organoid line were each exposed to one of the therapies listed above.

[3] = test system: gastric cancer tumor organoid line; experiment: cells; conditions: for organoids of the line that are resistant to the drug / organoids with 0% viability (susceptible to the drug) / organoids with 100% viability (resistant to the drug): caspase 3/7 readout, 10,000 nM dose; for viability at 10 µM: Homo sapiens, read-out: mean viability for all organoids in the plot
Description: as §1, §2, §3, §4, §5
In this example, tissue culture wells containing a gastric cancer tumor organoid line were each exposed to one of the therapies listed above.

[4] = test system: first endometrial cancer tumor organoid line; experiment: high throughput tumor organoid drug screen, per-organoid viability histogram
Description: as §1, §2, §3, §4, §5
In this example, tissue culture wells containing a first endometrial cancer tumor organoid line were each exposed to one of the therapies listed above.

[5] = test system: colon cancer tumor organoid line; experiment: as above; type: cell-based, human; conditions: caspase 3/7 readout, 10,000 nM dose; for viability at 10 µM: Homo sapiens, read-out: mean viability for all organoids in the plot
Description: as §1, §2, §3, §4, §5
In this example, tissue culture wells containing a colon cancer tumor organoid line were each exposed to one of the therapies listed above.

[6] = test system: colorectal cancer tumor organoid line; experiment: as above; type: cell-based, human; conditions: caspase 3/7 readout, 10,000 nM dose; for viability at 10 µM: Homo sapiens, read-out: mean viability for all organoids in the plot
Description: as §1, §2, §3, §4, §5
In this example, tissue culture wells containing a colorectal cancer tumor organoid line were each exposed to one of the therapies listed above.

[7] = test system: second endometrial cancer tumor organoid line; experiment: as above; conditions: for viability at 10 µM: Homo sapiens, read-out: mean viability for all organoids in the plot; for organoids with 0% viability (susceptible to the drug) / organoids with 100% viability (resistant to the drug) / organoids of the line that are resistant to the drug: caspase 3/7 readout, 10,000 nM dose
Description: as §1, §2, §3, §4, §5
In this example, tissue culture wells containing a second endometrial cancer tumor organoid line were each exposed to one of the therapies listed above.

[8] = test system: head and neck cancer tumor organoid line; experiment: as above; conditions: for viability at 10 µM: Homo sapiens, read-out: mean viability for all organoids in the plot; for organoids of the line that are resistant to the drug / organoids with 0% viability (susceptible to the drug) / organoids with 100% viability (resistant to the drug): caspase 3/7 readout, 10,000 nM dose
Description: as §1, §2, §3, §4, §5
In this example, tissue culture wells containing a head and neck cancer tumor organoid line were each exposed to one of the therapies listed above.

[9] = caspase 3/7 readout, 10,000 nM dose

## C[C@@]1(CO)[C@H](O)CC[C@@]2(C)[C@H]1CC[C@H]1C[C@@H]3C[C@@]12CC[C@]3(O)CO [Aphidicolin]
[1]; caspase 3/7 readout
  organoids of the line that are resistant to the drug: presence of organoids
[2]
  viability at 10 µM: ~30%
[2]; [9]
  organoids of the line that are resistant to the drug: presence of a small proportion
  organoids with 0% viability (susceptible to the drug): Approximately 50 organoids
  organoids with 100% viability (resistant to the drug): Approximately 15 organoids

## CC(=O)O/N=C1/C(=C2/C(=O)Nc3cc(Br)ccc32)Nc2ccccc21 [BIO-acetoxime]
[3]
  organoids of the line that are resistant to the drug: general absence
  organoids with 0% viability (susceptible to the drug): Approximately 150 organoids
  organoids with 100% viability (resistant to the drug): Approximately 20 organoids

## CC(C)C[C@H](NC(=O)[C@H](Cc1ccccc1)NC(=O)c1cnccn1)B(O)O [Bortezomib]
[3]
  viability at 10 µM: ~15%
  organoids of the line that are resistant to the drug: general absence
  organoids with 0% viability (susceptible to the drug): Approximately 225 organoids
  organoids with 100% viability (resistant to the drug): Approximately 15 organoids

## N.N.[Cl][Pt][Cl] [Cisplatin]
[4]; [9]
  organoids of the line that are resistant to the drug: general absence
  organoids with 0% viability (susceptible to the drug): Approximately 60 organoids
  organoids with 100% viability (resistant to the drug): Approximately 5 organoids

## CC(=O)O[C@@]12CO[C@@H]1C[C@H](O)[C@@]1(C)C(=O)[C@H](O)C3=C(C)[C@@H](OC(=O)[C@H](O)[C@@H](NC(=O)OC(C)(C)C)c4ccccc4)C[C@@](O)([C@@H](OC(=O)c4ccccc4)[C@H]21)C3(C)C [Docetaxel]
[2]
  viability at 10 µM: ~30%
[2]; [9]
  organoids of the line that are resistant to the drug: presence of a small proportion
  organoids with 0% viability (susceptible to the drug): Approximately 50 organoids
  organoids with 100% viability (resistant to the drug): Approximately 20 organoids
[5]
  viability at 10 µM: ~20%
  organoids of the line that are resistant to the drug: general absence
  organoids with 0% viability (susceptible to the drug): Approximately 70 organoids
  organoids with 100% viability (resistant to the drug): Approximately 15 organoids
[6]
  viability at 10 µM: ~45%
  organoids of the line that are resistant to the drug: presence of organoids
  organoids with 0% viability (susceptible to the drug): Approximately 35 organoids
  organoids with 100% viability (resistant to the drug): Approximately 30 organoids

## O=c1[nH]cc(F)c(=O)[nH]1 [Fluorouracil]
[5]
  viability at 10 µM: ~25%
  organoids of the line that are resistant to the drug: general absence
  organoids with 0% viability (susceptible to the drug): Approximately 70 organoids
  organoids with 100% viability (resistant to the drug): Approximately 10 organoids

## Nc1ccn([C@@H]2O[C@H](CO)[C@@H](O)C2(F)F)c(=O)n1 [Gemcitabine]
[1]
  viability at 10 µM: ~35%
[1]; caspase 3/7 readout
  organoids of the line that are resistant to the drug: presence of a small proportion
  organoids with 100% viability (resistant to the drug): Approximately 15 organoids
[2]
  viability at 10 µM: ~35%
[2]; [9]
  organoids of the line that are resistant to the drug: presence of a small proportion
  organoids with 0% viability (susceptible to the drug): Approximately 30 organoids
  organoids with 100% viability (resistant to the drug): Approximately 10 organoids

## CCS(=O)(=O)Nc1ccc2c(c1)/C(=C(/Nc1ccc(CN3CCCCC3)cc1)c1ccccc1)C(=O)N2 [Hesperadin]
[7]
  viability at 10 µM: ~20%
  organoids with 0% viability (susceptible to the drug): Approximately 100 organoids
  organoids with 100% viability (resistant to the drug): Approximately 5 organoids

## CO[C@@H](C)Cn1c(=O)n(C)c2cnc3ccc(-c4cncc(C(C)(C)O)c4)cc3c21 [LY3023414]
[8]
  viability at 10 µM: ~15%
  organoids of the line that are resistant to the drug: general absence
  organoids with 0% viability (susceptible to the drug): Approximately 80 organoids
  organoids with 100% viability (resistant to the drug): Approximately 5 organoids

## NC(=O)c1cccc2cn(-c3ccc([C@@H]4CCCNC4)cc3)nc12 [Niraparib]
[1]
  viability at 10 µM: ~25%
[1]; caspase 3/7 readout
  organoids of the line that are resistant to the drug: presence of a small proportion
  organoids with 0% viability (susceptible to the drug): Approximately 80 organoids
  organoids with 100% viability (resistant to the drug): Approximately 20 organoids

## O=C1[O][Pt]2([NH][C@@H]3CCCC[C@H]3[NH]2)[O]C1=O [Oxaliplatin]
[4]; [9]
  mean viability for all organoids in the plot: approximately 40%
  organoids of the line that are resistant to the drug: presence of organoids
  organoids with 0% viability (susceptible to the drug): Approximately 20 organoids
  organoids with 100% viability (resistant to the drug): Approximately 18 organoids

## CC(=O)O[C@H]1C(=O)[C@@]2(C)[C@H]([C@H](OC(=O)c3ccccc3)[C@]3(O)C[C@H](OC(=O)[C@H](O)[C@@H](NC(=O)c4ccccc4)c4ccccc4)C(C)=C1C3(C)C)[C@]1(OC(C)=O)CO[C@@H]1C[C@@H]2O [Paclitaxel]
[8]
  viability at 10 µM: ~40%
  organoids of the line that are resistant to the drug: presence of a small proportion
  organoids with 0% viability (susceptible to the drug): Approximately 65 organoids
  organoids with 100% viability (resistant to the drug): Approximately 35 organoids

## CCCCc1nc2cc(/C=C/C(=O)NO)ccc2n1CCN(CC)CC [Pracinostat]
[3]
  viability at 10 µM: ~20%
  organoids of the line that are resistant to the drug: general absence
  organoids with 0% viability (susceptible to the drug): Approximately 120 organoids
  organoids with 100% viability (resistant to the drug): Approximately 10 organoids

## COc1cccc(OCCCN)c1-c1cc(Nc2cnc(C#N)cn2)n[nH]1 [Prexasertib, Prexasertib HCl]
[7]
  viability at 10 µM: ~40%
  organoids of the line that are resistant to the drug: presence of a small proportion
  organoids with 0% viability (susceptible to the drug): Approximately 80 organoids
  organoids with 100% viability (resistant to the drug): Approximately 35 organoids

## CCc1c2c(nc3ccc(O)cc13)-c1cc3c(c(=O)n1C2)COC(=O)[C@]3(O)CC [SN-38]
[1]; caspase 3/7 readout
  mean viability for all organoids in the plot: approximately 45%
  organoids of the line that are resistant to the drug: presence of organoids
  organoids with 0% viability (susceptible to the drug): Approximately 20 organoids
  organoids with 100% viability (resistant to the drug): Approximately 20 organoids
[2]; [9]
  mean viability for all organoids in the plot: approximately 20%
  organoids of the line that are resistant to the drug: general absence
  organoids with 0% viability (susceptible to the drug): Approximately 100 organoids
  organoids with 100% viability (resistant to the drug): Approximately 5 organoids

## O=C(O)/C=C/c1ccc(-c2ccc(O)c(C34CC5CC(CC(C5)C3)C4)c2)cc1 [ST-1926, Adarotene]
[4]; Homo sapiens, read-out: mean viability for all organoids in the plot
  viability at 10 µM: ~30%
[4]; [9]
  organoids of the line that are resistant to the drug: general absence
  organoids with 0% viability (susceptible to the drug): Approximately 45 organoids
  organoids with 100% viability (resistant to the drug): Approximately 10 organoids
[7]
  viability at 10 µM: ~40%
  organoids of the line that are resistant to the drug: presence of a small proportion
  organoids with 0% viability (susceptible to the drug): Approximately 65 organoids
  organoids with 100% viability (resistant to the drug): Approximately 40 organoids

## CC(=O)Nc1cccc(-n2c(=O)n(C3CC3)c(=O)c3c(Nc4ccc(I)cc4F)n(C)c(=O)c(C)c32)c1 [Trametinib]
[6]
  viability at 10 µM: ~25%
  organoids with 0% viability (susceptible to the drug): Approximately 50 organoids
  organoids with 100% viability (resistant to the drug): Approximately 10 organoids

— US11415571B2, “Large scale organoid analysis” (Tempus Labs, Inc., priority 2019, dated 2022)
